Experimental data as given in patent US20210008161A1, “METHODS AND COMPOSITIONS FOR IMPROVED HOMOLOGY DIRECTED REPAIR” (CRISPR THERAPEUTICS AG, priority 2019, published 2021).

Assays:
Type in all cases: cell-based, human
[1] = system: HEK293 T cells; experiment: Indel formation at GFP gene in AAVS1 locus by TIDE analysis; conditions: regardless of ssODN or gRNA, compared to DMSO control, FIG. 2C-2D
Procedure: The effect of DNA PK inhibition by Nu7441 correction of a DSB by the NHEJ pathway (e.g., introduce an indel at the DSB site) or HDR pathway (e.g., introduce a gene mutation encoded by a homology donor at the DSB site) was assessed using the reporter system described in Example 1. In this case gene-editing was evaluated in HEK293 T cells expressing GFP in the AAVS1 locus. To introduce a gene edit that converts GFP to BFP, cells were electroporated with ribonucleoprotein (RNP) comprised of Cas9 and gRNA1 (GFP target sequence identified by SEQ ID NO: 9; sgRNA spacer sequence identified by SEQ ID NO: 10) or gRNA2 (GFP target sequence identified by SEQ ID NO: 11; sgRNA spacer identified by SEQ ID NO: 12) that targets the GFP gene encoded in the AAVS1 locus. The cells were also transfected with ssODNs that encoded the gene correction necessary to convert GFP to BFP and homology arms complimentary to the sequence upstream and downstream of the target gene cut site. The efficiency of HDR repair was determined by measuring the level of cell BFP fluorescence. The efficiency of cutting (indel information) was monitored by TIDE analysis.
Shown in FIGS. 2C-2D is a measure of indel formation performed by TIDE analysis for the same edits that are described for FIGS. 2A-2B. […] Thus, the DNA PK inhibitor Nu7441 achieves reduced repair of a DSB by the NHEJ pathway when a homology donor is provided.

[2] = system: HEK293 T cells; experiment: BFP to GFP fluorescent reporter assay of HDR efficiency (AAVS1 locus)
Procedure: An in vitro assay was conducted to determine the ability of various inhibitors and enhancers to improve the efficiency of HDR repair in HEK293 T cells. Specifically, a fluorescent reporter-based screening approach was developed to identify molecules that enhance gene-editing by HDR. A reporter system was generated in HEK293 T cells comprising a genomic AAVS1 locus that encoded either a blue fluorescent protein (BFP) or a green fluorescent protein (GFP) within the AAVS1 locus. A gene encoding BFP can be converted to a gene encoding GFP by substitution of cytosine at position 199 to uridine (e.g., a C to U transition at position 199). By introducing a DSB within the BFP gene using a CRISPR/Cas9 gene-editing system, a homology donor DNA encoding the nucleotide substitution can be used to edit the BFP gene to a GFP gene by HDR repair. Thus, a gene edit that induces a C to U transition at position 199 results in a change in cellular fluorescence. A change in the fluorescence of the cell measured by flow cytometry can be used to quantify efficiency of HDR repair. Additionally, the reverse gene edit can be performed for an AAVS1 locus encoding a GFP gene, wherein a GFP can be converted to BFP by substitution of uridine at position 199 to cytosine.
To create the reporter system, an AAV-based homology donor DNA encoding either BFP or GFP was created. The AAV-BFP or AAV-GFP donor was flanked by homology arms that were 1000 base pairs in length and expression of BFP or GFP was driven by the MND promoter (e.g., a synthetic promoter that contains the U3 region of a modified Moloney murine leukemia virus long term terminal repeat with myeloproliferative sarcoma virus enhancer and deleted negative control region, SEQ ID NO: 58). The viral DNA was packaged into capsids of adeno-associated virus serotype 6 (AAV6) vector. Either the BFP or GFP donor was introduced using the AAV6 vector into the AAVS1 locus in HEK293 T cells by homologous recombination using CRISPR-Cas9 as follows: purified Cas9 protein was complexed with two different single gRNAs (sgRNAs) targeting the AAVS1 locus at SEQ ID NO: 3 (spacer sequence identified by SEQ ID NO: 4; gRNA obtained from Maxcyte) or SEQ ID NO: 5 (spacer sequence identified by SEQ ID NO: 6; gRNA obtained from Thermo Fisher). Cas9 protein used in the Exemplary section provided herein refers to Cas9 polypeptide derived from S. pyogenes (SpCas9), unless indicated otherwise.
The Cas9-sgRNA complex was electroporated into the HEK293 T cells using the Lonza Nucleofector program CM-130. Approximately, 2 hours after electroporation, the cells were infected with various viral doses of AAV6 encoding a BFP (SEQ ID NO: 44) or GFP homology donor (SEQ ID NO: 47). One week later, cells were analyzed by flow cytometry to verify integration and expression of BFP or GFP in the AAVS1 locus. HEK293 T cells expressing BFP or GFP were sorted into single cells in 96-well plates. After ˜2 weeks of growth, DNA extracted from individual cells was analyzed for precise integration of the respective BFP or GFP gene into the AAVS1 locus by long-range PCR. This PCR analysis allowed for determination of whether the BFP/GFP gene was integrated in one or both alleles of the AAVS1 locus.
To introduce a gene edit that converts BFP to GFP, cells were electroporated with ribonucleoprotein (RNP) comprised of Cas9 and sgRNA that targets the BFP gene encoded in the AAVS1 locus. The sgRNA targeted a sequence in the BFP gene identified by SEQ ID NO: 7 (sgRNA spacer sequence identified by SEQ ID NO: 8). The sgRNA were prepared using a standard sgRNA cassette specific to SpCas9, as indicated by SEQ ID NO: 2 (wherein a, c, g, u represent 2′ O-methyl phosphorothioate nucleotides; s represents phosphorothioate nucleotides; and A, C, G, U, N represent canonical RNA nucleotides). The gRNAs used in the Exemplary section provided herein were sgRNAs prepared with the SpCas9 sgRNA cassette unless indicated otherwise. […]

[3] = system: HEK293 T cells; experiment: Gene correction by NHEJ repair at GSD1a locus with dsDNA donors; conditions: dsDNA donor 50-0 or 150-0, 2.5 μM Nu7441, 1.25 μM SCR7 or 10 μM RS-1, vs DMSO alone, FIG. 3
Procedure: The effect of Nu7441 treatment on gene correction by the NHEJ pathway was also evaluated. To do so, the cells were transfected with two different dsDNA donors: 50-0 (SEQ ID NO: 37) or 150-0 (SEQ ID NO: 38). Cells were edited with 1.5 μg dsDNA donor. These dsDNA donors, lacking homology arms, introduce a second 3′ splice site into exon 2 at the GSD1a locus when inserted into the cut site induced by the Cas9-guide complex by NHEJ repair. The cells were treated with 2.5 μM Nu7441, 1.25 μM SCR7, or 10 μM RS-1 and gene correction by NHEJ repair was evaluated. […] Treatment with SCR7 or RS-1 had no effect over DMSO alone.

[4] = 1.25 μM SCR7 or 10 μM RS-1, ssODN1-4, relative to DMSO alone, FIG. 1A

| Compound | indel formation at the DSB site [1] | fold higher HDR efficiency ([2]; 2.5 μM Nu7441, each of ssODN1-4, FIG. 1A) | fold higher HDR efficiency, high vs low concentration ([2]; 2.5 μM vs 0.6 μM, FIG. 1B, 1C) | HDR efficiency at higher concentrations ([2]; concentrations higher than 2.5 μM) | improvement in HDR efficiency, dose dependence ([2]; varied doses, FIG. 1B) | gene correction by NHEJ repair [3] | HDR efficiency [2, 4] | HDR efficiency ([2]; different doses of mRNA encoding i53, ssODN Hn-91-61 and Ht-39-88, FIG. 1D) |
| --- | --- | --- | --- | --- | --- | --- | --- | --- |
| O=c1cc(N2CCOCC2)oc2c(-c3cccc4c3sc3ccccc34)cccc12 [Nu7441] | decreased | approximately 3 fold | approximately 1.5 fold | no further improvement | dose-dependent | substantial decrease | – | – |
| O=C(Nc1ccc(Br)cc1)c1ccc(Br)c(S(=O)(=O)NCc2ccccc2)c1 [RS-1] | reduction | – | – | – | – | no effect | no improvement | – |
| O=c1[nH]c(=S)[nH]c(N=Cc2ccccc2)c1N=Cc1ccccc1 [SCR7] | reduction | – | – | – | – | no effect | no improvement | – |
| i53: polypeptide inhibitor of 53BP1 (SEQ ID NO: 70), introduced as an mRNA-encoded protein (ORF SEQ ID NO: 69) | – | – | – | – | – | – | – | increased |
